Data from US20020032151A1, “Modulating the permeability of a physiological barrier with an agent that modulates tyrosine phosphorylation” (priority 1993, published 2002).
Entries after “also recorded” stand apart in the source; their conditions may differ. Where two headings read alike, the source gives them in different places.

Assays:
[1] = test system: MDCK strain I cells; test: Transcellular electrical resistance (TER) of filter-grown MDCK strain I cells; format: cell-based, canine
[2] = test system: E-cadherin/catenin complex; format: cell-based, canine
[3] = test system: bovine brain microvessel endothelial cells (BBECs); conditions: BBECs as well as endothelial cells derived from human brain; previously shown (Rubin et al. 1991); cited from earlier work
[4] = test system: MDCK strain I cells; format: cell-based, canine
[5] = test system: pp60^v−src transfected rat 3Y1 cells; conditions: pp60v-src transfected rat 3Y1 fibroblast cell line; Matsuyoshi et al. 1992; cited from earlier work
[6] = test system: ZO-1 and associated proteins; format: cell-based, canine
[7] = test system: BBECs; format: cell-based, bovine
[8] = test system: MDCK strain I cells; format: cell-based, canine; remark: listed apart in the source
[9] = test system: bovine brain microvessel endothelial cells (BBECs); format: cell-based
[10] = test system: MDCK cells; conditions: Volberg et al. 1992; cited from earlier work
[11] = test system: brain tissue from normal adult rat; test: Phosphotyrosine (4G10) label of blood vessels in rat brain tissue exposed to pervanadate; conditions: rat brain tissue exposed to pervanadate (FIG. 10F)
Description: In these experiments, brain sections were labelled with an antibody to phosphotyrosine (monoclonal antibody 4G10) and labelled with a polyclonal antibody to collagen type IV to outline blood vessels. In sham operated animals, 4G10 label was restricted to a few large, peripherally located, vessels with a pattern of staining consistent with tyrosine phosphorylation of proteins at the borders of cells lining the vessels. After 24 hours of MCA occlusion an increase in 4G10 label was seen associated with microvessels located at the edge of the severely damaged tissue (see FIG. 10). The increase in 4G10 label was restricted to vessels in the area of the lesion, but not every vessel was labelled. 4G10 distribution in the microvessels is similar to that seen when brain tissue from normal adult rat is exposed to pervanadate, a drug that elevates levels of phosphotyrosine by inhibiting the enzymes responsible for tyrosine dephosphorylation.
Sections were air-dried and permeablised with 95% ethanol at −95° C. for 30 minutes followed by acetone at room temperature for 1 minute. All of the antibody incubations and washes used PBS containing 5×10^−4 M sodium vanadate. […]

[12] = test system: MDCK cells; format: cell-based, canine
[13] = test system: BBECs; format: cell-based, bovine; remark: listed apart in the source

## OCC(S)CS (centres unmarked) [2,3-dimercaptopropanol]
[1]; MDCK cells preincubated 10 minutes with 200 μM β-mercaptoethanol or 100 μM 2,3-dimercaptopropanol, 10 μM PAO, TER 30 minutes later (FIG. 2b)
  block of PAO-induced decrease in TER by reducing agent: blocked
[1]; MDCK cells, 100 μM 2,3-dimercaptopropanol preincubation, 3 mM BAPTA (FIG. 2b)
  block of BAPTA-elicited decrease in TER: did not block
[2]
  reversal of PAO-stimulated catenin tyrosine phosphorylation: is reversed; also recorded: reversed catenin tyrosine phosphorylation

## O=C(O)CN(CC(=O)O)c1ccccc1OCCOc1ccccc1N(CC(=O)O)CC(=O)O [BAPTA, bis- (O-aminophenoxy)-ethane-N,N,N′,N′-tetraacetic acid]
[1]; MDCK strain I cells, preformed pervanadate 0.01-0.1 mM (FIG. 1b), PAO 1-30 μM (FIG. 2a), BAPTA 2.5-3 mM
  change in TER: decrease in TER

## Nc1ncnc2c1ncn2[C@@H]1O[C@@H]2COP(=O)(O)O[C@H]2[C@H]1O [cyclic AMP]
[3]
  effect of cyclic AMP on TER: increases TER

## CO[C@H]1[C@@H](OC)C[C@H](C)[C@@H](OC)C2=CC(=O)C=C(NC(=O)/C(C)=C/C=C\[C@H](OC)[C@@H](OC(N)=O)/C(C)=C/[C@@H]1C)C2=O [herbimycin A]
[1]
  effect of herbimycin A alone on resistance: did not affect resistance
  effect of herbimycin A pretreatment on PAO-induced decrease in transcellular electrical resistance: attenuated the decrease in transcellular electrical resistance
[4]
  effect of herbimycin A on PAO-induced increase in protein tyrosine phosphorylation: attenuated the ability of PAO to increase protein tyrosine phosphorylation

## [O]=[V]([O-])([O-])[O-] [vanadate]
[1]
  change in TER after addition of H2O2 to vanadate pretreated cells: caused a rapid decrease in TER
  change in TER over a longer time period, vanadate alone: caused a decrease in TER
  change in TER, vanadate alone: did not cause a decrease in TER
[5]
  tyrosine phosphorylation of cadherin and β-catenin: induced the tyrosine phosphorylation of E- or P-cadherin and β-catenin

## OCCS [β-mercapto-ethanol, β-mercaptoethanol]
[1]
  block of PAO-induced decrease in TER by reducing agent: not

## pervanadate
[6]
  tyrosine phosphorylation of ZO-1: also stimulated tyrosine phosphorylation of ZO-1; also recorded: clearly resulted in the tyrosine phosphorylation
  tyrosine phosphorylation of ZO-2: clearly resulted in the tyrosine phosphorylation
[1]
  change in TER: elicited a decrease in TER
  reversibility of the induced decrease in TER by reducing agent if added early enough: partially reversed
[2]
  tyrosine phosphorylation of proteins in anti-E-cadherin immunoprecipitates: stimulates the tyrosine phosphorylation of several catenins as well as E-cadherin; also recorded: caused an increase in the tyrosine phosphorylation of several proteins
  tyrosine phosphorylation of α-catenin in α-catenin immunoprecipitates: could not be detected
  β-catenin content of phosphotyrosine immunoprecipitates: is increased; also recorded: rapidly increased
[7]
  anti-phosphotyrosine staining pattern: initially caused an increase in staining at the adherens junction at the intercellular borders
[8]
  anti-phosphotyrosine staining pattern: initially caused an increase in staining at the adherens junction at the intercellular borders
[9]
  change in TER: caused a dose-dependent and rapid decrease in TER
[10]
  effect on the tight junction, by immunostaining of ZO-1: had no effect on the tight junction
  tyrosine phosphorylation of proteins at the adherens junction: elicited tyrosine phosphorylation of proteins at the adherens junction
[11]
  phosphotyrosine label of blood vessels: induces detectable levels of phosphotyrosine in both large and small vessels; also recorded: induces increased phosphotyrosine in both small and large blood vessels
[12]
  paracellular flux of sucrose: increase the paracellular flux of sucrose
[13]
  tyrosine phosphorylation of proteins in whole cell lysates: caused an increase in the tyrosine phosphorylation of many proteins
[4]
  tyrosine phosphorylation of proteins in whole cell lysates: caused an increase in the tyrosine phosphorylation of many proteins
